Measurements as given in patent publication US6461997B1, “Triazole sulfones having herbicidal activity” (Monsanto Technology LLC, priority 1999, dated 2002).

Tests used:
[1] = test system: GALAP (catchweed bedstraw); assay: Pre-emergence herbicidal activity, cool season; assay type: in vivo, Galium aparine; details: lowest tested rate with 80% or greater inhibition; rates 300, 100, 30, 10 g/ha; about 14 days
Method: (§1) Tables 5 to 8 summarize results of tests conducted as described below to determine the pre-emergence herbicidal activity, in the form of a GR80 value, of illustrative compounds of this invention. […] Compounds of the invention were typically applied at rates of 300, 100, 30, and 10 g/ha. Where herbicidal activity was evident but 80% inhibition was not achieved at the highest rate tested, an asterisk (*) is shown in the following tables.
(§2) The pre-emergence tests were conducted by the following procedure. Topsoil was sieved to pass through a 1.27 cm screen. Fertilizer was added to the topsoil and the mixture was then sterilized by heating. The topsoil mixture was placed in a pot and compacted to a depth of 1.0 to 1.25 cm from the top of the pot. Seeds of each of several monocotyledonous and dicotyledonous annual plant species were placed on top of the soil. Additional soil was subsequently placed over the seeds to level-fill the pot. A known amount of each test compound dissolved or suspended in an appropriate organic solvent was diluted with a 50:50 mix of acetone and water and applied to the surface of the soil. After treatment the plants were placed in a greenhouse where they received 0.64 cm of overhead irrigation. All subsequent watering consisted of a light overhead mist and/or subirrigation as needed for germination and growth. Tables 5 and 6 below relate to warm season plant species which were placed after pre-emergence treatment in a greenhouse with a 30/21° C. day/night temperature regime. Tables 7 and 8 below relates to cool season plant species placed after pre-emergence treatment in a greenhouse or growth chamber with an 18/13° C. day/night temperature regime.
(§3) Approximately 14 days after planting and treating, the plants were observed and herbicidal efficacy recorded as percent inhibition by comparison with untreated plants.
(§4) The plant species usually regarded as weeds which were utilized in the tests are identified in the tables below according to the following legend, in which “d” indicates a dicotyledonous species and “m” a monocotyledonous species. All monocotyledonous species included in the tests herein are grasses.

POLCO (wild buckwheat) = assay: Pre-emergence herbicidal activity, cool season; assay type: in vivo, Polygonum convolvulus; details: lowest tested rate with 80% or greater inhibition; rates 300, 100, 30, 10 g/ha; about 14 days
Method: as §1, §2, §3, §4

SINAR (wild mustard) = assay: Pre-emergence herbicidal activity, cool season; assay type: in vivo, Sinapis arvensis; details: lowest tested rate with 80% or greater inhibition; rates 300, 100, 30, 10 g/ha; about 14 days
Method: as §1, §2, §3, §4

[2] = test system: VERPE (creeping speedwell); assay: Pre-emergence herbicidal activity, cool season; assay type: in vivo, Veronica persicaria; details: lowest tested rate with 80% or greater inhibition; rates 300, 100, 30, 10 g/ha; about 14 days
Method: as §1, §2, §3, §4

SASKR (russian thistle) = assay: Pre-emergence herbicidal activity, cool season; assay type: in vivo, Salsola kali; details: lowest tested rate with 80% or greater inhibition; rates 300, 100, 30, 10 g/ha; about 14 days
Method: as §1, §2, §3, §4

STEME (common chickweed) = assay: Pre-emergence herbicidal activity, cool season; assay type: in vivo, Stellaria media; details: lowest tested rate with 80% or greater inhibition; rates 300, 100, 30, 10 g/ha; about 14 days
Method: as §1, §2, §3, §4

[3] = test system: LAMPU (purple deadnettle); assay: Pre-emergence herbicidal activity, cool season; assay type: in vivo, Lamium purpureum; details: lowest tested rate with 80% or greater inhibition; rates 300, 100, 30, 10 g/ha; about 14 days
Method: as §1, §2, §3, §4

[4] = test system: AGSST (creeping bentgrass); assay: Pre-emergence herbicidal activity, cool season; assay type: in vivo, Agrostis stolonifera; details: GR80 = lowest tested rate (300, 100, 30, 10 g/ha) with 80% or greater inhibition; approx. 14 days after treating; 18/13° C.
Method: as §1, §2, §3, §4

[5] = test system: PANMI (wild proso millet); assay: Pre-emergence herbicidal activity, warm season; assay type: in vivo, Panicum miliaceum; details: GR80 = lowest tested rate (300, 100, 30, 10 g/ha) with 80% or greater inhibition; approx. 14 days after treating; 30/21° C.
Method: as §1, §2, §3, §4

SETVI (green foxtail) = assay: Pre-emergence herbicidal activity, cool season; assay type: in vivo, Setaria viridis; details: GR80 = lowest tested rate (300, 100, 30, 10 g/ha) with 80% or greater inhibition; approx. 14 days after treating; 18/13° C.
Method: as §1, §2, §3, §4

ECHCG (barnyardgrass) = assay: Pre-emergence herbicidal activity, warm season; assay type: in vivo, Echinochloa crus-galli; details: GR80 = lowest tested rate (300, 100, 30, 10 g/ha) with 80% or greater inhibition; approx. 14 days after treating; 30/21° C.
Method: as §1, §2, §3, §4

| SMILES | Pre-emergence activity GR80, GALAP [1] | Pre-emergence activity GR80, POLCO (POLCO (wild buckwheat)) | Pre-emergence activity GR80, SINAR (SINAR (wild mustard)) | Pre-emergence activity GR80, VERPE [2] | Pre-emergence activity GR80, SASKR (SASKR (russian thistle)) | Pre-emergence activity GR80, STEME (STEME (common chickweed)) | Pre-emergence activity GR80, LAMPU [3] | Pre-emergence activity (GR80) AGSST [4] [g/ha] | Pre-emergence activity (GR80) PANMI [5] [g/ha] | Pre-emergence activity (GR80) SETVI (SETVI (green foxtail)) [g/ha] | Pre-emergence activity (GR80) ECHCG (ECHCG (barnyardgrass)) [g/ha] |
| --- | --- | --- | --- | --- | --- | --- | --- | --- | --- | --- | --- |
| O=C(N1CCOCC1)n1cnc(S(=O)(=O)C(F)F)n1 [Example 25] | 300 g/ha | [empty] | [empty] | [empty] | [empty] | [empty] | 300 g/ha | – | – | – | – |
| COCCN(C)C(=O)n1cnc(S(=O)(=O)C(F)F)n1 [Example 29] | [empty] | [empty] | 300 g/ha | 100 g/ha | 300 g/ha | 300 g/ha | 300 g/ha | 300 | – | – | – |
| CCN(CC)C(=S)n1cnc(S(=O)(=O)C(F)F)n1 [Example 35] | 100 g/ha | 100 g/ha | 100 g/ha | 100 g/ha | [empty] | [empty] | 300 g/ha | – | – | – | – |
| CN(C(=O)n1cnc(S(=O)(=O)C(F)(F)Br)n1)c1ccccc1 [Example 38] | [empty] | [empty] | [empty] | [empty] | [empty] | [empty] | [empty] | – | – | – | – |
| C#CCN(C)C(=O)n1cnc(S(=O)(=O)C(F)(F)Br)n1 [Example 42] | 300 g/ha | [empty] | [empty] | [empty] | [empty] | [empty] | [empty] | 100 | 300 | – | – |
| CCSC(F)(F)S(=O)(=O)c1ncn(C(=O)N(C)c2ccccc2)n1 [Example 50] | 100 g/ha | [empty] | [empty] | [empty] | [empty] | 300 g/ha | [empty] | 30 | 300 | – | – |
| C=CCN(C)C(=O)n1cnc(S(=O)(=O)C(F)(F)SCC)n1 [Example 53] | 300 g/ha | [empty] | [empty] | [empty] | [empty] | [empty] | [empty] | 300 | 300 | 300 | – |
| C#CCN(C)C(=O)n1cnc(S(=O)(=O)C(F)(F)SCC)n1 [Example 54] | [empty] | 100 g/ha | [empty] | 300 g/ha | [empty] | [empty] | [empty] | – | 300 | – | – |
| O=C(N1CCOCC1)n1cnc(S(=O)(=O)C(F)(F)C(F)F)n1 [Example 60] | [empty] | [empty] | [empty] | [empty] | [empty] | [empty] | [empty] | – | – | – | – |
| CN(C(=O)n1cnc(S(=O)(=O)C(F)(F)C(F)F)n1)c1ccccc1 [Example 62] | [empty] | [empty] | [empty] | [empty] | [empty] | [empty] | 300 g/ha | – | – | – | – |
| O=C(N1CCOCC1)n1cnc(S(=O)(=O)C(F)(F)C(F)(F)Br)n1 [Example 72] | [empty] | 300 g/ha | [empty] | [empty] | [empty] | [empty] | [empty] | – | – | – | – |
| CN(C(=O)n1cnc(S(=O)(=O)C(F)(F)C(F)(F)Br)n1)c1ccccc1 [Example 74] | [empty] | [empty] | 300 g/ha | 300 g/ha | 300 g/ha | [empty] | 300 g/ha | – | 300 | – | – |
| C=CCN(C)C(=O)n1cnc(S(=O)(=O)C(F)(F)C(F)(F)Br)n1 [Example 77] | [empty] | [empty] | [empty] | [empty] | [empty] | [empty] | [empty] | 300 | – | – | – |
| CN(C(=O)n1cnc(S(=O)(=O)C(F)(F)C(F)(F)Br)n1)C1CCCCC1 [Example 79] | 300 g/ha | 300 g/ha | 300 g/ha | 30 g/ha | [empty] | 100 g/ha | 100 g/ha | 100 | 300 | 300 | 300 |
| CN(Cc1ccccc1)C(=O)n1cnc(S(=O)(=O)C(F)(F)C(F)(F)Br)n1 [Example 80] | [empty] | [empty] | [empty] | [empty] | [empty] | [empty] | [empty] | – | 300 | 300 | – |
| CN(C(=O)n1cnc(S(=O)(=O)C(F)(F)Cl)n1)c1ccccc1 [Example 86] | 300 g/ha | [empty] | 300 g/ha | 100 g/ha | 300 g/ha | [empty] | 100 g/ha | – | – | – | – |
| C#CCN(C)C(=O)n1cnc(S(=O)(=O)C(F)(F)Cl)n1 [Example 90] | [empty] | [empty] | 300 g/ha | 10 g/ha | 30 g/ha | [empty] | [empty] | – | – | – | – |
